Read-outs that look alike come from different tables or passages of the source.
Tests used:
Format in all cases: biochemical
[1] = target: T1, 320 wild-type protein kinases (Homo sapiens, UniProt O14733); settings: singlicate
T1 sequence (O14733 1-419): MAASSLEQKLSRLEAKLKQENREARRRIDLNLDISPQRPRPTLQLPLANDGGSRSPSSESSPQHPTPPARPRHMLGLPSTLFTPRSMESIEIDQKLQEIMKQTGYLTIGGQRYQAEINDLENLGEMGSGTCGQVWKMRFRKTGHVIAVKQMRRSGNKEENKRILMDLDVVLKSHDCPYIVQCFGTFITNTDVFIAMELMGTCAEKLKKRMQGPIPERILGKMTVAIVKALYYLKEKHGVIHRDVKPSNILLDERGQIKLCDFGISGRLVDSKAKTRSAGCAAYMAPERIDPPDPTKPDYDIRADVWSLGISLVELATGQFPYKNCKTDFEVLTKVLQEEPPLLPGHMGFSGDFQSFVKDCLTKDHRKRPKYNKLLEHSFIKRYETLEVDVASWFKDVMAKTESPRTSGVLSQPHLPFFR
Description: (§1) Table S4. Profiling of two compounds at two concentrations against 320 wild-type protein kinases; singlicate measurement; Residual activities (% of control).

[2] = target: 320 wild-type protein kinases (Homo sapiens, UniProt P12931); settings: kinase SRC (GST-HIS-tag), singlicate
Description: as §1

[3] = target: T2, 320 wild-type protein kinases (Homo sapiens, UniProt P15735); settings: singlicate
T2 sequence (P15735 1-406): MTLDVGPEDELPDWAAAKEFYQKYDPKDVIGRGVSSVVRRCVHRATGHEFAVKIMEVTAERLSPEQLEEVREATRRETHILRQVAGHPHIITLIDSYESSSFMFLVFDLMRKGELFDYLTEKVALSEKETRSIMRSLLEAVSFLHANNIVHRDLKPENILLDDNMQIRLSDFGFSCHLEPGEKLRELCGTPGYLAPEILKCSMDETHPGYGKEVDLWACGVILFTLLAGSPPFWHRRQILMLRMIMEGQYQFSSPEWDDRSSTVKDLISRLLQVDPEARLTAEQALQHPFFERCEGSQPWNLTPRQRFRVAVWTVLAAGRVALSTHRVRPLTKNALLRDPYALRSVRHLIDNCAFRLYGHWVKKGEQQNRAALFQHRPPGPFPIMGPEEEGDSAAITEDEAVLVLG
Description: as §1

[4] = target: 320 wild-type protein kinases (Homo sapiens, UniProt P17948); settings: kinase VEGF-R1, singlicate
Description: as §1

[5] = target: T3, 320 wild-type protein kinases (Homo sapiens, UniProt P36896); settings: ACV-R1B, singlicate
T3 sequence (P36896 24-505): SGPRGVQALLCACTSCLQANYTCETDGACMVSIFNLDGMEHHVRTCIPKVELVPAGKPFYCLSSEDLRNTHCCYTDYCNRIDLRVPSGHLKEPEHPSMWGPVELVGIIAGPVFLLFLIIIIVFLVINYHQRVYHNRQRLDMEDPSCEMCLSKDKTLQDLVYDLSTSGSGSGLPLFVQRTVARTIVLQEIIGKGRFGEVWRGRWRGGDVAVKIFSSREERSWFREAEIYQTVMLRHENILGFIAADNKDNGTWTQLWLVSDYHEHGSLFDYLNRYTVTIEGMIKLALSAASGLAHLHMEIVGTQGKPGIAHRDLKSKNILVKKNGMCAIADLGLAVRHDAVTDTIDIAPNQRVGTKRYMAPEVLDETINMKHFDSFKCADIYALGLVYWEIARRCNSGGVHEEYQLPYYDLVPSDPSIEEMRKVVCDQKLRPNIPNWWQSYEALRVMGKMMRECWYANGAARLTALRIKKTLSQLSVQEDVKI
Description: as §1

[6] = target: 320 wild-type protein kinases (Homo sapiens, UniProt P42685); settings: FRK, singlicate
Description: as §1

[7] = target: 320 wild-type protein kinases (Homo sapiens, UniProt P57059); settings: kinase SIK1, singlicate
Description: as §1

[8] = target: 320 wild-type protein kinases (Homo sapiens, UniProt P78362); settings: kinase SRPK2, singlicate
Description: as §1

[9] = target: 320 wild-type protein kinases (Homo sapiens, UniProt Q00536); settings: CDK16/CycY, singlicate
Description: as §1

[10] = target: 320 wild-type protein kinases (Homo sapiens, UniProt Q13233); settings: singlicate
Description: as §1

[11] = target: 320 wild-type protein kinases (Homo sapiens, UniProt Q5TCY1); settings: kinase TTBK1, singlicate
Description: as §1

[12] = target: 320 wild-type protein kinases (Homo sapiens, UniProt Q96RG2); settings: PASK, singlicate
Description: as §1

[13] = target: 320 wild-type protein kinases (Homo sapiens, UniProt Q9UPE1); settings: kinase STK23, singlicate
Description: as §1

[14] = target: 320 wild-type protein kinases (Homo sapiens, UniProt Q9Y463); settings: DYRK1B, singlicate
Description: as §1

[15] = target: 320 wild-type protein kinases (Homo sapiens, UniProt Q9Y6M4); settings: singlicate
Description: as §1

Chain of 320 wild-type protein kinases (Homo sapiens, UniProt P17948) (P17948 27-1338): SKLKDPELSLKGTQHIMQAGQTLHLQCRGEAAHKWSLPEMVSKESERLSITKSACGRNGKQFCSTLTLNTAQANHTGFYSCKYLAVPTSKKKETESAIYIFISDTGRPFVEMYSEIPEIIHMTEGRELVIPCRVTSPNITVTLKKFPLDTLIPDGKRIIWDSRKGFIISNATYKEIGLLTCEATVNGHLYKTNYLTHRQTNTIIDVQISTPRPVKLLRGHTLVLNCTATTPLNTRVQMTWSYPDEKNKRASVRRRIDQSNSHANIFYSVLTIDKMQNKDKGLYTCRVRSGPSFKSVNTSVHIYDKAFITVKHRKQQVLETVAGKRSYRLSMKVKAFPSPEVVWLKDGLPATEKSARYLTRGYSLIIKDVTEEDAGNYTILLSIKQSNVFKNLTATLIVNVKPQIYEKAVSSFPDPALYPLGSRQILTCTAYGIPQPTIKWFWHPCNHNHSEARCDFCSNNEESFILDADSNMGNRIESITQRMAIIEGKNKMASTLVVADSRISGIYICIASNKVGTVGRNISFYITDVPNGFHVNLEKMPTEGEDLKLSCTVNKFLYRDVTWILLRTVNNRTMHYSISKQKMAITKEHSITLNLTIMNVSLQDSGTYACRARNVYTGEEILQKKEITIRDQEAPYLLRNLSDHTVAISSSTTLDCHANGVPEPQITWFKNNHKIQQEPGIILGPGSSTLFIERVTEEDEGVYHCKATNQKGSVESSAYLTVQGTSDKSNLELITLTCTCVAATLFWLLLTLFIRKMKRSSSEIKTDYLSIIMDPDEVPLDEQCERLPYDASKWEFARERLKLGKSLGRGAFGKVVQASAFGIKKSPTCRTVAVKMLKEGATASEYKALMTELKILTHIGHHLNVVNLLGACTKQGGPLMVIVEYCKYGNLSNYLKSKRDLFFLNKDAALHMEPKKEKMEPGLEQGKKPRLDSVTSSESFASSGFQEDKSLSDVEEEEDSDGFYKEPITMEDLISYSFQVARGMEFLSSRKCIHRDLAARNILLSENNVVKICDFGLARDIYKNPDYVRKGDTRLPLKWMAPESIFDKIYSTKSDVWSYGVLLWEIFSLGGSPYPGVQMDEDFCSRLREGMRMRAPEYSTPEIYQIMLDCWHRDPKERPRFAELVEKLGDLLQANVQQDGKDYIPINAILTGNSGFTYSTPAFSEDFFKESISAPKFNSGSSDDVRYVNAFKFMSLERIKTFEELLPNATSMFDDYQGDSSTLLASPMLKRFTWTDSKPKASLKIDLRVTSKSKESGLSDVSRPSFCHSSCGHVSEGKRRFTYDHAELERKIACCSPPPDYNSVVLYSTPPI
Chain of 320 wild-type protein kinases (Homo sapiens, UniProt P42685) (P42685 whole entry): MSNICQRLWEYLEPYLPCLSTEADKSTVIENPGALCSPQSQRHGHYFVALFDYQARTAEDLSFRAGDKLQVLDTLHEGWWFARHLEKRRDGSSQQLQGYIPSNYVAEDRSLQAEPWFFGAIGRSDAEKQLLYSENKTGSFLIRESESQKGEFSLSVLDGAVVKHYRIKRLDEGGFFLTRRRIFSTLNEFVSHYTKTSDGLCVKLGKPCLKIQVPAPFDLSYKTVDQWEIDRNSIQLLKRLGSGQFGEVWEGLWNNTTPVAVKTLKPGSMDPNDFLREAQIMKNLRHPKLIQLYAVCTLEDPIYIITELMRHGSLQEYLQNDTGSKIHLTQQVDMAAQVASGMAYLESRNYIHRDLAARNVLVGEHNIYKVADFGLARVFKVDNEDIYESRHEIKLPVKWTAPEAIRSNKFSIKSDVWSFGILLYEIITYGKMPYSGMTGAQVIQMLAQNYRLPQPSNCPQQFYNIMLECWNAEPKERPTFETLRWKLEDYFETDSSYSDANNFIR
Chain of 320 wild-type protein kinases (Homo sapiens, UniProt P78362) (P78362 whole entry): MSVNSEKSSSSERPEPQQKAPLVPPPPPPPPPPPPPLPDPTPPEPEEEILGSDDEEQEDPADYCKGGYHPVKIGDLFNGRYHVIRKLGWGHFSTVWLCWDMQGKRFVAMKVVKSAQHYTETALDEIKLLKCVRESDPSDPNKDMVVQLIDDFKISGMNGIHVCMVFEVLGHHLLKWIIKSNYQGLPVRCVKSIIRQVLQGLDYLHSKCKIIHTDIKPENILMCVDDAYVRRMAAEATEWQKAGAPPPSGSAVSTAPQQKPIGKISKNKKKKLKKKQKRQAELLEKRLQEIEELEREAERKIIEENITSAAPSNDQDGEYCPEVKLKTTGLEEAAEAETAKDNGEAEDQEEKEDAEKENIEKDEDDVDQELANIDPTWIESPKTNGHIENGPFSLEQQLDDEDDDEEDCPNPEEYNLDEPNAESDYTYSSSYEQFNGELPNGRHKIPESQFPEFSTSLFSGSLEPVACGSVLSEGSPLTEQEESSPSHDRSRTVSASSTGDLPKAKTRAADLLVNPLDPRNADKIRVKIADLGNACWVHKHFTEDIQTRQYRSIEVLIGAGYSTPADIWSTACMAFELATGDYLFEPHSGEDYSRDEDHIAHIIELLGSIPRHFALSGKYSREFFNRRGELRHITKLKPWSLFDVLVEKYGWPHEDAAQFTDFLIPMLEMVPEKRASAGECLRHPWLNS
Chain of 320 wild-type protein kinases (Homo sapiens, UniProt Q96RG2) (Q96RG2 whole entry): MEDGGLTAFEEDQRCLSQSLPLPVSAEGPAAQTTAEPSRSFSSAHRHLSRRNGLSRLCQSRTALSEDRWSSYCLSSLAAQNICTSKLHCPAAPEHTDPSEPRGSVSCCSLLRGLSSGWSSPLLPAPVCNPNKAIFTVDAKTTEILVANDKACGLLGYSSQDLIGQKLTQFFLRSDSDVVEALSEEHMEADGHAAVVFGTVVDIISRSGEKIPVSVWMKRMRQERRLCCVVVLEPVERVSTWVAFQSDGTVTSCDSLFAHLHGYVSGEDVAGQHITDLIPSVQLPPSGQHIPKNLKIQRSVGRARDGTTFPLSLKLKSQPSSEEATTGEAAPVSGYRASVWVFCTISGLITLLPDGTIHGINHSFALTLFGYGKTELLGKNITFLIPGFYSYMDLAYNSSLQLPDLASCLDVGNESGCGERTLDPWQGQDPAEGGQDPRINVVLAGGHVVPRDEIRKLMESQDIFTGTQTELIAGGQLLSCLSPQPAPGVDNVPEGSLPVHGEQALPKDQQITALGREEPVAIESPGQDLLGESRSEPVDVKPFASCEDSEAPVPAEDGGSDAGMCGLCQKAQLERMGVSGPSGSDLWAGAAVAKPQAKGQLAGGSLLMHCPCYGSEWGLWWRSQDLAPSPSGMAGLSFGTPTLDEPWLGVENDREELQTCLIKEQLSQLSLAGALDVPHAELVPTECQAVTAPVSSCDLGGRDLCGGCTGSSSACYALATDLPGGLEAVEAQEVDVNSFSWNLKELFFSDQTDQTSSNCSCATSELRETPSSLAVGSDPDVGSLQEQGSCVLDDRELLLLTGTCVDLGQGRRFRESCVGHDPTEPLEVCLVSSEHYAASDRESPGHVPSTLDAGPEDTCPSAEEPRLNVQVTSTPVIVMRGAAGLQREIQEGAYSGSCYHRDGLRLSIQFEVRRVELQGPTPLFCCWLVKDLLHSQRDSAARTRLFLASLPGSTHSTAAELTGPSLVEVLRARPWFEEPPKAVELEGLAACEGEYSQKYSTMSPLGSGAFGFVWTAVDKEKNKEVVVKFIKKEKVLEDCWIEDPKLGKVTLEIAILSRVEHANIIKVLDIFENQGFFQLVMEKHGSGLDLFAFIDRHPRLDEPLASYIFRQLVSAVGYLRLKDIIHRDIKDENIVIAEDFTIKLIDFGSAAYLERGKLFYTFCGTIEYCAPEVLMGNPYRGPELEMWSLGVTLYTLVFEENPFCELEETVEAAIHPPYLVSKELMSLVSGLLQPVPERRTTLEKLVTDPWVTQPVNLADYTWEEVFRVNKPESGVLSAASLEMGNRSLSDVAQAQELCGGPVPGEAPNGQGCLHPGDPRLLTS
Chain of 320 wild-type protein kinases (Homo sapiens, UniProt P12931) (P12931 whole entry): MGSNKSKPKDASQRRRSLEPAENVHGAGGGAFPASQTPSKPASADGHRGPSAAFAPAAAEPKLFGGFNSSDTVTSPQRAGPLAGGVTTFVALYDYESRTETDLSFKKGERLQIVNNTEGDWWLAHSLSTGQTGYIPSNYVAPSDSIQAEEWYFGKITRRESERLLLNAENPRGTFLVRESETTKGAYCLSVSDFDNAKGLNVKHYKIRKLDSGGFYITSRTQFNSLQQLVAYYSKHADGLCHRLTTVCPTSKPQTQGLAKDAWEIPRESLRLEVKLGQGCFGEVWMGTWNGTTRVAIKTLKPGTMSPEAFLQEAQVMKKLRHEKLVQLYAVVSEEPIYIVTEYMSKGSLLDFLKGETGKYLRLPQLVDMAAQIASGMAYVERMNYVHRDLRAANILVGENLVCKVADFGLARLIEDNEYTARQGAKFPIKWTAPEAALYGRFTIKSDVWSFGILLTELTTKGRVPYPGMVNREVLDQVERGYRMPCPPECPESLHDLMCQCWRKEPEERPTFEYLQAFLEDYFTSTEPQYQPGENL
Chain of 320 wild-type protein kinases (Homo sapiens, UniProt Q9Y463) (Q9Y463 whole entry): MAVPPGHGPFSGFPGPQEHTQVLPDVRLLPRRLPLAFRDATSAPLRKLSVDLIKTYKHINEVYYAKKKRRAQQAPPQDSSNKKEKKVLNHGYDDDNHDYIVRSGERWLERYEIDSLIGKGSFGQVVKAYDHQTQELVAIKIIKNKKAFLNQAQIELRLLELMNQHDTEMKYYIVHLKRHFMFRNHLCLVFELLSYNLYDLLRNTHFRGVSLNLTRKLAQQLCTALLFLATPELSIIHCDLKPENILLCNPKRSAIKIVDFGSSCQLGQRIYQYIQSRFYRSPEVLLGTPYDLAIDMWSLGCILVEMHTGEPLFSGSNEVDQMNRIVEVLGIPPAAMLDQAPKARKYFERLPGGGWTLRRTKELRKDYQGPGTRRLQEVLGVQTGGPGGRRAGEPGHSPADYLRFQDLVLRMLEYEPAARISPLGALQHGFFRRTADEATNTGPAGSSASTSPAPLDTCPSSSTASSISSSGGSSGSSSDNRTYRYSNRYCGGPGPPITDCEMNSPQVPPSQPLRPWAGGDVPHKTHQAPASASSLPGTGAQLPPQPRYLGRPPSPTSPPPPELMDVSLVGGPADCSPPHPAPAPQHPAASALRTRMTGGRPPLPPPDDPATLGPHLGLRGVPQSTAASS

SMILES	Residual activity ([1]; MKK7, 1.0E-06 M)	Residual activity ([1]; MKK7, 1.0E-07 M)	Residual activity, SRC (GST-HIS-tag) ([2]; assay conc. 1.0E-06 M)	Residual activity, SRC (GST-HIS-tag) ([2]; assay conc. 1.0E-07 M)	Residual activity ([3]; PHKG2, 1.0E-06 M)	Residual activity ([3]; PHKG2, 1.0E-07 M)	Residual activity, VEGF-R1 ([4]; assay conc. 1.0E-06 M)	Residual activity, VEGF-R1 ([4]; assay conc. 1.0E-07 M)	Residual activity ([5]; 1.0E-06 M)	Residual activity ([5]; 1.0E-07 M)	Residual activity ([6]; 1.0E-06 M)	Residual activity ([6]; 1.0E-07 M)	Residual activity, SIK1 ([7]; assay conc. 1.0E-06 M)	Residual activity, SIK1 ([7]; assay conc. 1.0E-07 M)	Residual activity, SRPK2 ([8]; assay conc. 1.0E-06 M)	Residual activity, SRPK2 ([8]; assay conc. 1.0E-07 M)	Residual activity ([9]; 1.0E-06 M)	Residual activity ([9]; 1.0E-07 M)	Residual activity ([10]; MAP3K1, 1.0E-06 M)	Residual activity ([10]; MAP3K1, 1.0E-07 M)	other results
C#Cc1cc(Nc2ncnc3cc(I)ccc23)ccc1Cl [Compound 41]	120 % of control	86 % of control	86 % of control	108 % of control	98 % of control	94 % of control	113 % of control	92 % of control	126 % of control	105 % of control	106 % of control	93 % of control	77 % of control	93 % of control	115 % of control	131 % of control	84 % of control	84 % of control	93 % of control	96 % of control	Residual activity, TTBK1 ([11]; assay conc. 1.0E-06 M): 102 % of control; Residual activity, TTBK1 ([11]; assay conc. 1.0E-07 M): 113 % of control; Residual activity ([12]; 1.0E-06 M): 101 % of control; Residual activity ([12]; 1.0E-07 M): 102 % of control; Residual activity, STK23 ([13]; assay conc. 1.0E-06 M): 94 % of control; Residual activity, STK23 ([13]; assay conc. 1.0E-07 M): 93 % of control; Residual activity ([14]; 1.0E-06 M): 90 % of control; Residual activity ([14]; 1.0E-07 M): 116 % of control; Residual activity ([15]; CK1-gamma3, 1.0E-06 M): 118 % of control; Residual activity ([15]; CK1-gamma3, 1.0E-07 M): 121 % of control
C#Cc1cc(Nc2ncnc3cc(OC)c(OC)cc23)ccc1Cl [Compound 45]	98 % of control	112 % of control	90 % of control	100 % of control	103 % of control	95 % of control	85 % of control	119 % of control	128 % of control	99 % of control	74 % of control	96 % of control	87 % of control	101 % of control	151 % of control	115 % of control	90 % of control	86 % of control	96 % of control	96 % of control	Residual activity, TTBK1 ([11]; assay conc. 1.0E-06 M): 101 % of control; Residual activity, TTBK1 ([11]; assay conc. 1.0E-07 M): 109 % of control; Residual activity ([12]; 1.0E-06 M): 93 % of control; Residual activity ([12]; 1.0E-07 M): 98 % of control; Residual activity, STK23 ([13]; assay conc. 1.0E-06 M): 87 % of control; Residual activity, STK23 ([13]; assay conc. 1.0E-07 M): 97 % of control; Residual activity ([14]; 1.0E-06 M): 111 % of control; Residual activity ([14]; 1.0E-07 M): 105 % of control; Residual activity ([15]; CK1-gamma3, 1.0E-06 M): 123 % of control; Residual activity ([15]; CK1-gamma3, 1.0E-07 M): 116 % of control

Reference: article PMC9329436, “Optimization of the 4-anilinoquin(az)oline scaffold as epidermal growth factor receptor (EGFR) inhibitors for chordoma utilizing a toxicology profiling assay platform” (Scientific Reports, 2022)
